Results reported in patent US20230295156A1, “CRYSTALLINE FORMS OF 4-[(7-CHLORO-2-METHOXYBENZO[B][1,5]NAPHTHYRIDIN-10-YL)AMINO]-2,6-BIS(PYRROLIDIN-1-YLMETHYL)PHENOL AND SALTS THEREOF” (Merck Patent GmbH, priority 2020, published 2023).
Entries after “also recorded” stand apart in the source; their conditions may differ.

Experiments:
[1] = Water Vapour Sorption isotherm (DVS), hygroscopicity acc. to Ph. Eur.; assay type: physicochemical; settings: for Hygroscopicity classification acc. to Ph. Eur. criteria (section 5.11.): based on water uptake difference 40-80% rh; for Water uptake level (Water Vapour Sorption): isotherm 25° C.
Procedure: As used herein, unless stated otherwise, Water Vapour Sorption isotherm measurements are carried out on a DVS-1 or a DVS-Intrinsic system from SMS.

[2] = Miniaturized non-sink dissolution in FaSSIF pH 6.5; assay type: physicochemical; settings: for Dissolution levels in FaSSIF pH 6.5: 37° C.; for Dissolution level in FaSSIF: FaSSIF pH 6.5, 37° C.
Procedure: Approx. 10-20 mg of solid sample were weighed into glass vials. 7 ml of respective FaSSIF (pH 6.5) medium (prewarmed to 37° C.) were added and the suspension was shaken at 450 rpm at 37° C. After 5 min, 15 min, 60 min, and 120 min, 1 ml suspension was withdrawn and filtered through a 0.2 µm syringe filter. Clear filtrate was analysed by HPLC after suitable dilution to measure the amount of API dissolved. To get non-sink conditions 1 ml pre warmed FaSSiF solution was added after sample was withdrawn.
The clear solution was collected in HPLC vials, the filtrate further diluted if necessary and finally HPLC analysis was carried out.
HPLC method for ph-dependent solubility & miniaturised non-sink dissolution: • Column: Chromolith RP-18e 100 - 3 mm • Solvent A: water/formic acid (999:1; v/v) • Solvent B: acetonitrile/formic acid (999:1; v/v) • Injection volume: 5 µL • Column temperature: 37° C. • Wavelength detector: 218 nm

[3] = relative humidity range 40-80% rh

Hygroscopicity classification acc. to Ph. Eur. criteria (section 5.11.) [1] | Water uptake level (Water Vapour Sorption) [1, 3] [wt%] | Dissolution level in FaSSIF ([2]; after 15 min) | Dissolution level in FaSSIF ([2]; after 60 min) | Dissolution level in FaSSIF ([2]; after 120 min) | Tendency to undergo hydrate formation upon exposure to elevated RH levels ([1]; up to 90% RH) | Structure (SMILES) | other results
hygroscopic | 2.4 | approx. 0.56 mg/mL | approx. 0.55 mg/mL | approx. 0.54 mg/mL | – | COc1ccc2nc3cc(Cl)ccc3c(Nc3cc(CN4CCCC4)c(O)c(CN4CCCC4)c3)c2n1 [Form I, 4-[(7-chloro-2-methoxybenzo[b][1,5]naphthyridin-10-yl)amino]-2,6-bis(pyrrolidin-1-ylmethyl)phenol] | Dissolution levels in FaSSIF pH 6.5 ([2]; 5 min, listed as Tosylate salt Form I): 547.9 µg/mL; Dissolution levels in FaSSIF pH 6.5 ([2]; 15 min, listed as Tosylate salt Form I): 557.9 µg/mL; Dissolution levels in FaSSIF pH 6.5 ([2]; 60 min, listed as Tosylate salt Form I): 552.8 µg/mL; Dissolution levels in FaSSIF pH 6.5 ([2]; 120 min, listed as Tosylate salt Form I): 537.7 µg/mL
slightly hygroscopic | – | approx. 0.45 mg/mL | approx. 0.44 mg/mL | approx. 0.44 mg/mL | – | COc1ccc2nc3cc(Cl)ccc3c(Nc3cc(CN4CCCC4)c(O)c(CN4CCCC4)c3)c2n1 [Form II, 4-[(7-chloro-2-methoxybenzo[b][1,5]naphthyridin-10-yl)amino]-2,6-bis(pyrrolidin-1-ylmethyl)phenol] | Water uptake level (Water Vapour Sorption) ([1]; relative humidity range 40-90% rh): 1.4 wt%; Dissolution levels in FaSSIF pH 6.5 ([2]; 5 min, listed as Besylate salt Form II): 432.8 µg/mL; Dissolution levels in FaSSIF pH 6.5 ([2]; 15 min, listed as Besylate salt Form II): 447.0 µg/mL; Dissolution levels in FaSSIF pH 6.5 ([2]; 60 min, listed as Besylate salt Form II): 440.1 µg/mL; Dissolution levels in FaSSIF pH 6.5 ([2]; 120 min, listed as Besylate salt Form II): 444.5 µg/mL
slightly hygroscopic | 1.5 | approx. 0.46 mg/mL | approx. 0.48 mg/mL | approx. 0.47 mg/mL | no tendency to undergo hydrate formation | COc1ccc2nc3cc(Cl)ccc3c(Nc3cc(CN4CCCC4)c(O)c(CN4CCCC4)c3)c2n1 [Form III, 4-[(7-chloro-2-methoxybenzo[b][1,5]naphthyridin-10-yl)amino]-2,6-bis(pyrrolidin-1-ylmethyl)phenol] | Dissolution levels in FaSSIF pH 6.5 ([2]; 5 min, listed as Edisylate salt Form III): 406.7 µg/mL; Dissolution levels in FaSSIF pH 6.5 ([2]; 15 min, listed as Edisylate salt Form III): 462.7 µg/mL; Dissolution levels in FaSSIF pH 6.5 ([2]; 60 min, listed as Edisylate salt Form III): 483.3 µg/mL; Dissolution levels in FaSSIF pH 6.5 ([2]; 120 min, listed as Edisylate salt Form III): 469.7 µg/mL
slightly hygroscopic | 0.6 | approx. 0.17 mg/mL | approx. 0.56 mg/mL | approx. 0.82 mg/mL | no tendency to undergo hydrate formation | COc1ccc2nc3cc(Cl)ccc3c(Nc3cc(CN4CCCC4)c(O)c(CN4CCCC4)c3)c2n1 [Form IV, 4-[(7-chloro-2-methoxybenzo[b][1,5]naphthyridin-10-yl)amino]-2,6-bis(pyrrolidin-1-ylmethyl)phenol] | Dissolution levels in FaSSIF pH 6.5 ([2]; 5 min, listed as Napsylate salt Form IV): 116.6 µg/mL; Dissolution levels in FaSSIF pH 6.5 ([2]; 15 min, listed as Napsylate salt Form IV): 209.0 µg/mL; Dissolution levels in FaSSIF pH 6.5 ([2]; 60 min, listed as Napsylate salt Form IV): 488.8 µg/mL; Dissolution levels in FaSSIF pH 6.5 ([2]; 120 min, listed as Napsylate salt Form IV): 630.0 µg/mL
non-hygroscopic | < 0.1 | – | – | – | – | COc1ccc2nc3cc(Cl)ccc3c(Nc3cc(CN4CCCC4)c(O)c(CN4CCCC4)c3)c2n1 [Form VI, 4-[(7-chloro-2-methoxybenzo[b][1,5]naphthyridin-10-yl)amino]-2,6-bis(pyrrolidin-1-ylmethyl)phenol] | Tendency to undergo hydrate formation upon exposure to elevated RH levels ([1]; up to 98% RH): no tendency to undergo hydrate formation
hygroscopic | > 4.9 | approx. 0.50 mg/mL | approx. 0.50 mg/mL | approx. 0.49 mg/mL | – | COc1ccc2nc3cc(Cl)ccc3c(Nc3cc(CN4CCCC4)c(O)c(CN4CCCC4)c3)c2n1 [Tetraphosphate form, 4-[(7-chloro-2-methoxybenzo[b][1,5]naphthyridin-10-yl)amino]-2,6-bis(pyrrolidin-1-ylmethyl)phenol tetraphosphate, reference compound] | Hygroscopicity classification acc. to Ph. Eur. criteria (section 5.11.) ([1]; listed as pyronaridine): hygroscopic; Dissolution levels in FaSSIF pH 6.5 ([2]; 5 min, listed as Pyronaridine (tetraphosphate salt, prior art form)): 501.4 µg/mL; Dissolution levels in FaSSIF pH 6.5 ([2]; 15 min, listed as Pyronaridine (tetraphosphate salt, prior art form)): 501.9 µg/mL; Dissolution levels in FaSSIF pH 6.5 ([2]; 60 min, listed as Pyronaridine (tetraphosphate salt, prior art form)): 501.3 µg/mL; Dissolution levels in FaSSIF pH 6.5 ([2]; 120 min, listed as Pyronaridine (tetraphosphate salt, prior art form)): 491.3 µg/mL

Structure (SMILES) | Hygroscopicity classification acc. to Ph. Eur. criteria (section 5.11.) [1] | Water uptake level (Water Vapour Sorption) [1, 3] [wt%] | Dissolution level in FaSSIF ([2]; after 15 min) | Dissolution level in FaSSIF ([2]; after 60 min) | Dissolution level in FaSSIF ([2]; after 120 min) | Tendency to undergo hydrate formation upon exposure to elevated RH levels ([1]; up to 90% RH) | other results
COc1ccc2nc3cc(Cl)ccc3c(Nc3cc(CN4CCCC4)c(O)c(CN4CCCC4)c3)c2n1 [Form V, 4-[(7-chloro-2-methoxybenzo[b][1,5]naphthyridin-10-yl)amino]-2,6-bis(pyrrolidin-1-ylmethyl)phenol] | slightly hygroscopic; also recorded: non-hygroscopic | 0.6 | approx. 0.17 mg/mL | approx. 0.56 mg/mL | approx. 0.82 mg/mL | no tendency to undergo hydrate formation | Dissolution levels in FaSSIF pH 6.5 ([2]; 5 min, listed as Napsylate salt Form V): 95.2 µg/mL; Dissolution levels in FaSSIF pH 6.5 ([2]; 15 min, listed as Napsylate salt Form V): 171.1 µg/mL; Dissolution levels in FaSSIF pH 6.5 ([2]; 60 min, listed as Napsylate salt Form V): 564.1 µg/mL; Dissolution levels in FaSSIF pH 6.5 ([2]; 120 min, listed as Napsylate salt Form V): 817.6 µg/mL
COc1ccc2nc3cc(Cl)ccc3c(Nc3cc(CN4CCCC4)c(O)c(CN4CCCC4)c3)c2n1 [Form VII, 4-[(7-chloro-2-methoxybenzo[b][1,5]naphthyridin-10-yl)amino]-2,6-bis(pyrrolidin-1-ylmethyl)phenol] | non-hygroscopic; also recorded: slightly hygroscopic | < 0.1 | – | – | – | – | Tendency to undergo hydrate formation upon exposure to elevated RH levels ([1]; up to 98% RH): no tendency to undergo hydrate formation
